{"source": "paper PMC4265473", "about": "(Molecular nutrition & food research, 2014)", "key": {"[1]": {"conditions": "cited from earlier work"}, "[2]": {"conditions": "rats, cited from earlier work"}, "[3]": {"conditions": "in the stomach; cited from earlier work"}, "[4]": {"conditions": "rats, 100 mg/kg XN daily by oral gavage for 5 days; cited from earlier work"}, "[5]": {"conditions": "mean ± S.D., N = 5; for Urinary excretion (total) during the first 24 h: after enzymatic deconjugation"}, "[6]": {"conditions": "for unconjugated form in serum: before enzymatic deconjugation, early time points of medium and high dose subjects; for Cmax / half-life / Tmax / Vd/F: female, human, serum, po; for CL/F: oral"}, "[7]": {"conditions": "female, human, in vivo"}, "[8]": {"assay": "clinical", "conditions": "female, human, in vivo"}, "[9]": {"tested_on": "Ishikawa cell line", "conditions": "read-out: EC50, estrogenicity; Ishikawa cells; cited from earlier work"}, "[10]": {"conditions": "cited from earlier work", "remark": "listed apart in the source"}, "[11]": {"conditions": "2 capsules/day, medium dose (2 capsules), mean ± S.D., N = 5"}, "[12]": {"conditions": "2 capsules/day, T1/2, medium dose (2 capsules), mean ± S.D., N = 5"}, "[13]": {"conditions": "4 capsules/day, high dose (4 capsules), mean ± S.D., N = 5"}, "[14]": {"conditions": "4 capsules/day, T1/2, high dose (4 capsules), mean ± S.D., N = 5"}, "[15]": {"conditions": "half-life, across all dosages of the hop extract"}, "[16]": {"conditions": "high dose (4 capsules), mean ± S.D., N = 5"}, "[17]": {"conditions": "low dose (1 capsule), mean ± S.D., N = 5"}, "[18]": {"conditions": "medium dose (2 capsules), mean ± S.D., N = 5"}}, "note": "Where “and” joins values, the source holds several entries; their conditions need not be identical. Equal entries are not always repeated. Where two headings read alike, the source gives them in different places. Marks after values point to notes of the source that are not given here."}
{"smiles": "COc1cc(O)c(CC=C(C)C)c(O)c1C(=O)/C=C/c1ccc(O)cc1", "note": "[XN, xanthohumol]", "values": [{"measurement": "elimination half-life", "setting": "[1]; humans, oral pure XN", "value": "18 to 20", "unit": "h"}, {"measurement": "time of secondary peak due to enterohepatic recirculation", "setting": "[1]; men and women", "value": 4, "unit": "h"}, {"measurement": "share recovered in the feces in the first 48 h", "setting": "[2]; oral administration", "value": 89, "unit": "%"}, {"measurement": "elimination half-life", "setting": "[2]; oral pure XN", "value": 32, "unit": "h"}, {"measurement": "half-life of conversion to IX by acid-catalyzed cyclization", "setting": "[3]", "value": 0.617, "unit": "h"}, {"measurement": "tissue distribution", "setting": "[4]", "value": "highest concentrations in the small intestine, colon and the liver"}, {"measurement": "Urinary excretion (total) during the first 24 h", "setting": "[5]; high dose", "value": "138 ± 113", "unit": "nmol"}, {"measurement": "Urinary excretion (% of dose) during the first 24 h", "setting": "[5]; high dose", "value": "0.058±0.047", "unit": "%"}, {"measurement": "Urinary excretion (total) during the first 24 h", "setting": "[5]; low dose", "value": "23.9 ± 17.9^a nmol"}, {"measurement": "Urinary excretion (% of dose) during the first 24 h", "setting": "[5]; low dose", "value": "0.040±0.030", "unit": "%"}, {"measurement": "Urinary excretion (total) during the first 24 h", "setting": "[5]; medium dose", "value": "37.0 ± 26.3", "unit": "nmol"}, {"measurement": "Urinary excretion (% of dose) during the first 24 h", "setting": "[5]; medium dose", "value": "0.031±0.022", "unit": "%"}, {"measurement": "unconjugated form in serum", "setting": "[6]", "value": "detected"}, {"measurement": "Cmax", "setting": "[6]; [11]", "value": "22.2 ± 12.1", "unit": "ng/mL"}, {"measurement": "half-life", "setting": "[6]; [12]", "value": "9.5 ± 2.2", "unit": "h"}, {"measurement": "Tmax", "setting": "[6]; [11]", "value": "3.6 ± 2.6", "unit": "h"}, {"measurement": "Vd/F", "setting": "[6]; [11]", "value": "3770 ± 1390", "unit": "L"}, {"measurement": "Cmax", "setting": "[6]; [13]", "value": "27.6 ± 8.9", "unit": "ng/mL"}, {"measurement": "half-life", "setting": "[6]; [14]", "value": "20.7 ± 12.7", "unit": "h"}, {"measurement": "Tmax", "setting": "[6]; [13]", "value": "1.8 ± 1.8", "unit": "h"}, {"measurement": "Vd/F", "setting": "[6]; [13]", "value": "7880 ± 1810", "unit": "L"}, {"measurement": "half-life", "setting": "[6]; [15]", "value": "~19", "unit": "h"}, {"measurement": "CL/F", "setting": "[6]; [16]", "value": "329 L/h and 329 ± 163 L/h"}, {"measurement": "CL/F", "setting": "[6]; [17]", "value": "657 L/h and 657 ± 670 L/h"}, {"measurement": "CL/F", "setting": "[6]; [18]", "value": "278 L/h and 278 ± 87 L/h"}]}
{"smiles": "CC(C)=CCc1c(O)cc2c(c1O)C(=O)C[C@@H](c1ccc(O)cc1)O2", "note": "[6-PN, 6-prenylnaringenin]", "values": [{"measurement": "AUC0-24 ratios after normalization by dose", "setting": "[7]", "value": "1: 1.2: 0.5"}, {"measurement": "Vd/F", "setting": "[8]; apparent volume of distribution", "value": "887 to 1770", "unit": "L"}, {"measurement": "AUC(0-inf)", "setting": "[8]; po, AUC0-inf", "value": "69.2 ± 60", "unit": "ng·h/mL"}, {"measurement": "half-life", "setting": "[8]; po, T1/2", "value": "23.5 ± 6.9", "unit": "h"}, {"measurement": "Vd/F", "setting": "[8]; po", "value": "887 ± 581", "unit": "L"}, {"measurement": "half-life", "setting": "[8]; po, half-life", "value": "21 to 24", "unit": "h"}]}
{"smiles": "COc1cc(O)c(CC=C(C)C)c2c1C(=O)CC(c1ccc(O)cc1)O2", "note": "(centres unmarked) [IX, isoxanthohumol]", "values": [{"measurement": "Urinary excretion (total) during the first 24 h", "setting": "[5]; high dose", "value": "172 ± 67.4", "unit": "nmol"}, {"measurement": "Urinary excretion (% of dose) during the first 24 h", "setting": "[5]; high dose", "value": "1.902±0.746", "unit": "%"}, {"measurement": "Urinary excretion (total) during the first 24 h", "setting": "[5]; low dose", "value": "29.8 ± 32.3", "unit": "nmol"}, {"measurement": "Urinary excretion (% of dose) during the first 24 h", "setting": "[5]; low dose", "value": "1.318±1.428", "unit": "%"}, {"measurement": "Urinary excretion (total) during the first 24 h", "setting": "[5]; medium dose", "value": "89.5 ± 54.5", "unit": "nmol"}, {"measurement": "Urinary excretion (% of dose) during the first 24 h", "setting": "[5]; medium dose", "value": "1.98±1.205", "unit": "%"}, {"measurement": "unconjugated form in serum", "setting": "[6]", "value": "detected"}, {"measurement": "Cmax", "setting": "[6]; [11]", "value": "19.1 ± 15.5", "unit": "ng/mL"}, {"measurement": "half-life", "setting": "[6]; [12]", "value": "24.8 ± 24.3", "unit": "h"}, {"measurement": "Tmax", "setting": "[6]; [11]", "value": "3.2 ± 3.2", "unit": "h"}, {"measurement": "Vd/F", "setting": "[6]; [11]", "value": "99 ± 56", "unit": "L"}, {"measurement": "Cmax", "setting": "[6]; [13]", "value": "37.6 ± 17.6", "unit": "ng/mL"}, {"measurement": "half-life", "setting": "[6]; [14]", "value": "19.9 ± 8.7", "unit": "h"}, {"measurement": "Tmax", "setting": "[6]; [13]", "value": "4 ± 4.8", "unit": "h"}, {"measurement": "Vd/F", "setting": "[6]; [13]", "value": "182 ± 53", "unit": "L"}, {"measurement": "CL/F", "setting": "[6]; [16]", "value": "7.3 ± 3.5", "unit": "L/h"}, {"measurement": "CL/F", "setting": "[6]; [17]", "value": "7.1 ± 4.2", "unit": "L/h"}, {"measurement": "CL/F", "setting": "[6]; [18]", "value": "5.7 ± 4.9", "unit": "L/h"}]}
{"smiles": "CC(C)=CCc1c(O)cc(O)c2c1O[C@H](c1ccc(O)cc1)CC2=O", "note": "[8-PN, 8-prenylnaringenin]", "values": [{"measurement": "EC50", "setting": "[9]", "value": 13, "unit": "nM"}, {"measurement": "time of secondary peak due to enterohepatic recirculation", "setting": "[10]; post dose, women", "value": "5 to 8", "unit": "h"}, {"measurement": "AUC0-24", "setting": "[10]; single oral dose of 50 mg 8-PN, women", "value": 453, "unit": "h^.ng/mL"}, {"measurement": "share of dose recovered in feces within 48 h", "setting": "[10]; single oral doses to women", "value": "21-24%"}, {"measurement": "Urinary excretion (total) during the first 24 h", "setting": "[5]; high dose", "value": "29.4 ± 22.9", "unit": "nmol"}, {"measurement": "Urinary excretion (% of dose) during the first 24 h", "setting": "[5]; high dose", "value": "1.001±0.781", "unit": "%"}, {"measurement": "Urinary excretion (total) during the first 24 h", "setting": "[5]; low dose", "value": "5.1 ± 4.4", "unit": "nmol"}, {"measurement": "Urinary excretion (% of dose) during the first 24 h", "setting": "[5]; low dose", "value": "0.693±0.597", "unit": "%"}, {"measurement": "Urinary excretion (total) during the first 24 h", "setting": "[5]; medium dose", "value": "21.3 ± 21.6", "unit": "nmol"}, {"measurement": "Urinary excretion (% of dose) during the first 24 h", "setting": "[5]; medium dose", "value": "1.449±1.467", "unit": "%"}, {"measurement": "unconjugated form in serum", "setting": "[6]", "value": "no free 8-PN was detected"}, {"measurement": "AUC0-24 of a theoretical dose of 50 mg 8-PN in the hop extract", "setting": "[6]; extrapolated assuming AUC linear with dose", "value": 2520, "unit": "h^.ng/mL"}, {"measurement": "Cmax", "setting": "[6]; [11]", "value": "3.9 ± 2.6", "unit": "ng/mL"}, {"measurement": "half-life", "setting": "[6]; [12]", "value": "> 24", "unit": "h"}, {"measurement": "Tmax", "setting": "[6]; [11]", "value": "7 ± 9.7", "unit": "h"}, {"measurement": "Vd/F", "setting": "[6]; [11]", "value": "186 ± 186", "unit": "L"}, {"measurement": "Cmax", "setting": "[6]; [13]", "value": "6.7 ± 3.8", "unit": "ng/mL"}, {"measurement": "half-life", "setting": "[6]; [14]", "value": "> 24", "unit": "h"}, {"measurement": "Tmax", "setting": "[6]; [13]", "value": "2.8 ± 4", "unit": "h"}, {"measurement": "Vd/F", "setting": "[6]; [13]", "value": "271 ± 216", "unit": "L"}, {"measurement": "half-life", "setting": "[6]; [15]", "value": "> 24", "unit": "h"}, {"measurement": "CL/F", "setting": "[6]; [16]", "value": "13.7 ± 5.5", "unit": "L/h"}, {"measurement": "CL/F", "setting": "[6]; [17]", "value": "11.1 ± 3.4", "unit": "L/h"}, {"measurement": "ratio of total serum concentrations 8-PN/IX", "setting": "[6]; mean of the other 4 subjects, high dose", "value": 0.14}, {"measurement": "ratio of total serum concentrations 8-PN/IX", "setting": "[6]; mean value, medium dose", "value": 0.17}, {"measurement": "CL/F", "setting": "[6]; [18]", "value": "10.4 ± 8.1", "unit": "L/h"}, {"measurement": "ratio of total serum concentrations 8-PN/IX", "setting": "[6]; one subject with higher exposure, high dose, after enzymatic deconjugation", "value": 0.35}, {"measurement": "ratio of total serum concentrations 8-PN/IX", "setting": "[6]; one subject with higher exposure, medium dose", "value": 0.65}]}
